Experimental data from ChEMBL document CHEMBL1201862, “PubChem BioAssay data set” (2004).
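A five-concentration, 48-hour dose response in 96-well plates underlies each endpoint, interpolated linearly between surrounding concentrations. The concentration for 50% growth inhibition is given as GI50.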 The source made the active and inactive calls. Rule as the data show it: active = GI50 up to about 1.1 µM and inactive = higher.

Columns and labels:
Assay in all cases: NCI-60 cell line screen, 48 h
NCI-H226 = test system: NCI-H226
SN12C = test system: SN12C
OVCAR-8 = test system: OVCAR-8
HT-29 = test system: HT-29
LOX IMVI = test system: LOX IMVI
SF-268 = test system: SF-268
UACC-257 = test system: UACC-257
K562 = test system: K562
T47D = test system: T47D
M14 = test system: M14
SK-OV-3 = test system: SK-OV-3
KM12 = test system: KM12
SW-620 = test system: SW-620
HL-60 = test system: HL-60
HOP-92 = test system: HOP-92
MDA-MB-435 = test system: MDA-MB-435
HCT-15 = test system: HCT-15
TK-10 = test system: TK-10
SK-MEL-5 = test system: SK-MEL-5
U-251 = test system: U-251

Row | SMILES | GI50 (NCI-H226) | GI50 (SN12C) | GI50 (OVCAR-8) | GI50 (HT-29) | GI50 (LOX IMVI) | GI50 (SF-268) | GI50 (UACC-257) | GI50 (K562) | GI50 (T47D) | GI50 (M14) | GI50 (SK-OV-3) | GI50 (KM12) | GI50 (SW-620) | GI50 (HL-60) | GI50 (HOP-92) | GI50 (MDA-MB-435) | GI50 (HCT-15) [µM] | GI50 (TK-10) | GI50 (SK-MEL-5) | GI50 (U-251)
1 | C=C1C(=O)OC2C1CCC(=C)C1CC(O)C(=C)C12 (stereo not given) | 27.1 µM (inactive) | 16.2 µM (inactive) | 24.9 µM (inactive) | 5.57 µM (inactive) | 7.52 µM (inactive) | 15.4 µM (inactive) | 12.9 µM (inactive) | 5.09 µM (inactive) | 20.7 µM (inactive) | 17.5 µM (inactive) | 33.8 µM (inactive) | 13.7 µM (inactive) | 16 µM (inactive) | 1.82 µM (inactive) | 3.21 µM (inactive) | 19.5 µM (inactive) | 10.8 | 8.02 µM (inactive) | 14.3 µM (inactive) | 23.3 µM (inactive)
2 | O=C(OCC12CC3CC(CC(C3)C1)C2)c1ccc(NCc2cc(O)ccc2O)cc1 | 1.77 µM (inactive) | 2.57 µM (inactive) | 1.81 µM (inactive) | 1.47 µM (inactive) | 1.72 µM (inactive) | 3.27 µM (inactive) | 1.64 µM (inactive) | 0.431 µM (active) | 0.473 µM (active) | 1.96 µM (inactive) | 6.08 µM (inactive) | 1.24 µM (inactive) | 3.02 µM (inactive) | 0.145 µM (active) | 3.66 µM (inactive) | 1.99 µM (inactive) | 1.32 | 1.99 µM (inactive) | 1.32 µM (inactive) | 1.02 µM (active)
3 | O=C(O)c1cc(/N=N/c2ccc([N+](=O)[O-])cc2)ccc1O | 17 µM (inactive) | 30.8 µM (inactive) | 33.4 µM (inactive) | 28.8 µM (inactive) | 39.7 µM (inactive) | 35.6 µM (inactive) | 24 µM (inactive) | 29.6 µM (inactive) | 42.6 µM (inactive) | 39.4 µM (inactive) | 81.7 µM (inactive) | 33.2 µM (inactive) | 36 µM (inactive) | 29 µM (inactive) | 18 µM (inactive) | 34.9 µM (inactive) | 31.8 | 25.6 µM (inactive) | 34.6 µM (inactive) | 21.6 µM (inactive)
4 | O=C1NC2C(=CC(O)C(O)C2O)c2cc3c(cc21)OCO3 (stereo not given) | 0.504 µM (active) | 0.301 µM (active) | 0.233 µM (active) | 0.345 µM (active) | 0.308 µM (active) | 0.171 µM (active) | 0.695 µM (active) | 0.34 µM (active) | 0.0964 µM (active) | 0.244 µM (active) | 0.619 µM (active) | 0.272 µM (active) | 0.335 µM (active) | 0.108 µM (active) | 0.904 µM (active) | 0.0951 µM (active) | 0.52 | 0.418 µM (active) | 0.164 µM (active) | 0.218 µM (active)
5 | O=c1c(Cc2ccccc2Cc2c(O)oc3ccccc3c2=O)c(O)oc2ccccc12 | > 100 µM (inactive) | > 100 µM (inactive) | > 100 µM (inactive) | > 100 µM (inactive) | > 100 µM (inactive) | > 100 µM (inactive) | > 100 µM (inactive) | > 100 µM (inactive) | > 100 µM (inactive) | > 100 µM (inactive) | > 100 µM (inactive) | > 100 µM (inactive) | > 100 µM (inactive) | > 100 µM (inactive) | > 100 µM (inactive) | > 100 µM (inactive) | > 100 | > 100 µM (inactive) | > 100 µM (inactive) | > 100 µM (inactive)
6 | Cc1ccc2c(c1)CC1(Cc3c(C)cccc3C1=O)C2=O (stereo not given) | > 100 µM (inactive) | > 100 µM (inactive) | > 100 µM (inactive) | > 100 µM (inactive) | > 100 µM (inactive) | > 100 µM (inactive) | > 100 µM (inactive) | > 100 µM (inactive) | > 100 µM (inactive) | > 100 µM (inactive) | 76.2 µM (inactive) | > 100 µM (inactive) | > 100 µM (inactive) | > 100 µM (inactive) | 40.2 µM (inactive) | > 100 µM (inactive) | > 100 | > 100 µM (inactive) | > 100 µM (inactive) | 87.5 µM (inactive)
7 | CC(=O)C(=[N+]=[N-])C(=O)OCCOC(=O)C(=[N+]=[N-])C(C)=O | > 1 µM (active) | > 1 µM (active) | > 1 µM (active) | > 1 µM (active) | > 1 µM (active) | > 1 µM (active) | > 1 µM (active) | > 1 µM (active) | > 1 µM (active) | > 1 µM (active) | > 1 µM (active) | > 1 µM (active) |  | > 1 µM (active) | > 1 µM (active) | > 1 µM (active) | > 1 | > 1 µM (active) | > 1 µM (active) | > 1 µM (active)
8 | CNC(=O)[C@H](Cc1ccccc1)NC(=O)N(CCC#N)CCN(C(=O)N[C@@H](Cc1ccccc1)C(=O)OC)c1ccccc1 | > 100 µM (inactive) |  | > 100 µM (inactive) | > 100 µM (inactive) | > 100 µM (inactive) | > 100 µM (inactive) | > 100 µM (inactive) | > 100 µM (inactive) | > 100 µM (inactive) | > 100 µM (inactive) | > 100 µM (inactive) | > 100 µM (inactive) | > 100 µM (inactive) | > 100 µM (inactive) | > 100 µM (inactive) | > 100 µM (inactive) | > 100 | > 100 µM (inactive) | > 100 µM (inactive) | > 100 µM (inactive)
9 | C=C1C2CC[C@@](C)(O)C2[C@H]2OC(=O)C(=C)[C@@H]2C[C@H]1O (stereo not given in full) | 18 µM (inactive) | 18.5 µM (inactive) | 22.3 µM (inactive) | 16.1 µM (inactive) | 15 µM (inactive) | 49.2 µM (inactive) | 16.3 µM (inactive) | 28.6 µM (inactive) | 17.8 µM (inactive) | 13.8 µM (inactive) | 29.1 µM (inactive) | 19.7 µM (inactive) | 29.7 µM (inactive) | 37.2 µM (inactive) | 27.5 µM (inactive) | 26 µM (inactive) | 16.7 | 14.9 µM (inactive) | 8.38 µM (inactive) | 31.9 µM (inactive)
10 | COC(=O)c1c(O)ccc2c1C1(Cc3ccccc3C1=O)C(O)O2 (stereo not given) | 9.79 µM (inactive) | 16.4 µM (inactive) | 14.5 µM (inactive) | 43.2 µM (inactive) | 19.5 µM (inactive) | 15.6 µM (inactive) | > 100 µM (inactive) | 12.8 µM (inactive) | 18.2 µM (inactive) | 17.3 µM (inactive) | 20.2 µM (inactive) | 25.4 µM (inactive) | 25.1 µM (inactive) | 4.02 µM (inactive) | 16.6 µM (inactive) | 13.4 µM (inactive) | 13.3 | 24.3 µM (inactive) | 34.3 µM (inactive) | 20.5 µM (inactive)
11 | COc1nc(N=P(c2ccccc2)(c2ccccc2)c2ccccc2)cc(=O)[nH]1 | > 100 µM (inactive) | > 100 µM (inactive) | > 100 µM (inactive) | > 100 µM (inactive) | > 100 µM (inactive) | > 100 µM (inactive) | > 100 µM (inactive) | > 100 µM (inactive) | > 100 µM (inactive) | > 100 µM (inactive) | > 100 µM (inactive) | > 100 µM (inactive) | > 100 µM (inactive) | > 100 µM (inactive) | > 100 µM (inactive) | > 100 µM (inactive) | > 100 | > 100 µM (inactive) | > 100 µM (inactive) | > 100 µM (inactive)
12 | COc1cc(C=C2C(C)=NN(c3cccc(Cl)c3)C23C(Cl)C(=O)N3c2nc3ccccc3s2)ccc1O (stereo not given) | 22.4 µM (inactive) |  | 16.8 µM (inactive) | 4.53 µM (inactive) | 18.1 µM (inactive) | 3.09 µM (inactive) | 23.1 µM (inactive) | 3.61 µM (inactive) | 27 µM (inactive) | 11.6 µM (inactive) | 26.3 µM (inactive) | 5.85 µM (inactive) | 10.7 µM (inactive) | 0.546 µM (active) | 6.7 µM (inactive) | 12.4 µM (inactive) | 20.7 | 30.7 µM (inactive) | 17.2 µM (inactive) | 15 µM (inactive)
13 | CCOc1cc(NC(C)=O)ccc1C(=O)NN1C(=O)C(Cl)C1c1ccc(O)c(OC)c1 (stereo not given) | 10.2 µM (inactive) | 13.3 µM (inactive) | 24.4 µM (inactive) | 16.3 µM (inactive) | 2.17 µM (inactive) | 14.7 µM (inactive) | 11.8 µM (inactive) | 5.11 µM (inactive) | 12.2 µM (inactive) | 11.8 µM (inactive) | 17.3 µM (inactive) | 17.6 µM (inactive) | 21.4 µM (inactive) | 15.7 µM (inactive) | 16.4 µM (inactive) | 12.6 µM (inactive) | 14.2 | 3.08 µM (inactive) | 10.4 µM (inactive) | 
14 | C[C@]1(CO)[C@H]2CC[C@@]34C=C[C@@](CO)(CC[C@H]3[C@]2(C)CC[C@H]1O)C4 | > 100 µM (inactive) | > 100 µM (inactive) | 31.1 µM (inactive) | > 100 µM (inactive) | 48.4 µM (inactive) | 47.3 µM (inactive) | 87.5 µM (inactive) |  | 12.9 µM (inactive) | 73.6 µM (inactive) | 38.6 µM (inactive) | 38.1 µM (inactive) | > 100 µM (inactive) | 37.4 µM (inactive) | > 100 µM (inactive) | 77.6 µM (inactive) | 36.5 | > 100 µM (inactive) | 12.9 µM (inactive) | 63 µM (inactive)
